PMC9643506 (Scientific Reports, 2022)
Read-outs that look alike come from different tables or passages of the source. Non-standard residues stand in square brackets, D forms with d. Residues, ends and D or L forms follow the SMILES beside them. No end group written: not given here. d2Nal = N[C@H](Cc1ccc2ccccc2c1)C(=O)O; αMeF = C[C@](N)(Cc1ccccc1)C(=O)O

Experiments:
B1R = biological target: T1, B1R (Homo sapiens, UniProt P46663); assay: IP-one (intracellular IP1) assay in T-REx 293/B1R cell line; type: cell-based
T1 construct: Thermo Fisher Scientific (T-REx 293 cells)
T1 sequence (P46663 1-353): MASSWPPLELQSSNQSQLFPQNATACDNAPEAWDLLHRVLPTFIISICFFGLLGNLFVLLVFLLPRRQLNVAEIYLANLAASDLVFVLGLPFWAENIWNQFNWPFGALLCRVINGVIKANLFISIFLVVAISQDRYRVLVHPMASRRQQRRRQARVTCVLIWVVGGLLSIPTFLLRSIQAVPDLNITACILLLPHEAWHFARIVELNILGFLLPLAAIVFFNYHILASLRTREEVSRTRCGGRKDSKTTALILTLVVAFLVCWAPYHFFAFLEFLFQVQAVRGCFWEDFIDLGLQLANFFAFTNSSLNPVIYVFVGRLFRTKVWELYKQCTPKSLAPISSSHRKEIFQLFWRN
Description: Cell culture and transfection.
(§1) The cell pellet was suspended in Hanks-HEPES (130 mM NaCl, 5.4 mM KCl, 1.8 mM CaCl2, 0.8 mM MgSO4, 0.9 mM NaH2PO4, 20 mM HEPES, LiCl 50 mM, and 3.25 mM glucose; pH 7.4).
Data were analyzed using GraphPad Prism version 5.04 for Windows (GraphPad software).

H4 cells = assay: MTT cytotoxicity assay, H4 cells; type: cell-based, human; settings: 24 h treatment, mean ± SEM, n = 3 wells per experiment, 2–3 independent experiments
Description: (§2) Cisplatin, a cytostatic drug commonly used for cancer chemotherapy, was used as a reference compound.
(§3) The colorimetric tetrazolium salt assay with 3-([…]-2-yl)-2,5-diphenyltetrazolium bromide (MTT) was used to evaluate the cytotoxicity potential of the antagonists BK in the cancer cell lines H4, U87-MG, and SHP-77 (see Supporting Information for details)[52].
(§4) Cell lines were seeded at a concentration of 5000 cells/well (H4) and 10000 cells/well (U87-MG, SHP-77) in 96-well plates and incubated for 24 hours. […] These compounds were dissolved in redistilled water and added to the cultures at a final concentration of 0.1%. Twenty-four hours after treatment with the drugs, the MTT assay was performed according to the procedure described previously.^52 MTT solution was added to each well (at a final concentration of 0.15 mg/mL) and then incubated at 37°C for 30 minutes. Formosan crystals were resolved and measured at 570 nm using a 96-well microplate reader (Thermo Lab system Multiscan Spectrum). […] Data were analyzed using GraphPad Prism 7.04 software. Statistical differences were calculated using a one-way analysis of variance (ANOVA) followed by Tukey’s posthoc test. Values of p < 0.05 were considered significant.

U87-MG cells = assay: MTT cytotoxicity assay, U87-MG cells; type: cell-based, human; settings: 24 h treatment, mean ± SEM, n = 3 wells per experiment, 2–3 independent experiments
Description: as §2, §3, §4

SHP-77 cells = assay: MTT cytotoxicity assay, SHP-77 cells; type: cell-based, human; settings: 24 h treatment, mean ± SEM, n = 3 wells per experiment, 2–3 independent experiments
Description: as §2, §3, §4

[1] = test system: caspase-3 and PARP cleavage; assay: Western blot of caspase-3 activation and PARP cleavage in U87-MG, SHP-77 and H4 cells; type: cell-based, human; settings: 24 h
Description: To verify whether the cytotoxic effects of the new B1R antagonists are mediated by apoptosis, the activation level of caspase-3, a key enzyme in the apoptosis process, and PARP protein, the caspase-3 substrate, were determined by Western blot analysis.
Cisplatin at 25 µM was used to induce control apoptosis. No significant change in the amount of cleaved PARP or caspase-3 activation was observed after B1R antagonist treatment compared with untreated cells (Fig. 5).
Figure 5 The effects of B1R antagonists and cisplatin on the expression levels of caspase-3 and PARP cleavage in cell lines U87-MG, SHP-77, and H4 were determined by Western blotting. 1. control cells; 2. cisplatin (25 μM); 3. […] BK11 (50 μM). […] Representative Western blot images showing expression of β-actin were used as a reference protein. Each picture represents a vertically cut part of nitrocellulose membranes. The membranes were cut before antibody application, considering the size margin according to the size of the molecular weight marker.
Western blot analysis was performed to evaluate the potential mechanism of cytotoxic activity of the antagonists of BK in cancer cell lines H4, U87-MG, and SHP-77 (see Supporting Information for details). Detection was performed using Pierce ECL Western blotting substrate (Thermo Fisher Scientific) and a Syngene GeneGnomeXRQ chemiluminescence analysis system. […]

B1R in U87-MG cell line = assay: Functional assay: shift of BK dose-response curve by B1R antagonist, U87-MG cells; type: cell-based, human; settings: antagonist 10 µM
Description: (§5) In further experiments, the U87-MG, SHP-77, and H4 cell lines were used for the functional assay with BK and the reference B1R antagonist. As shown in Fig. 13S in Supplementary File, all three cell lines expressed the functional B1R protein and its activity according to the mRNA level shown in Fig. 4. The obtained results are consistent with previous findings showing the expression of functional B1R and B2R genes and proteins in human glioblastoma cells U87-MG[32],[33]. In other studies, cellular expression of B1 and B2 receptors was detected in five different subtypes of human lung carcinomas (adenocarcinoma, squamous cell carcinoma, large cell carcinoma, small cell carcinoma, and carcinoid tumors)[34]. In addition, B2R has also been characterized in the cell line SHP-77[35]. However, to our knowledge, this is the first time that we have detected B1R and B2R gene expression in H4 cells of human brain neuroglioma and B1R in SHP-77 cells of human lung carcinoma.
(§6) Figure 13S. […] All three cell lines expressed the functional protein B1R.

B1R in SHP-77 cell line = assay: Functional assay: shift of BK dose-response curve by B1R antagonist, SHP-77 cells; type: cell-based, human; settings: antagonist 10 µM
Description: as §5, §6

B1R in H4 cell line = assay: Functional assay: shift of BK dose-response curve by B1R antagonist, H4 cells; type: cell-based, human; settings: antagonist 10 µM
Description: as §5, §6

mock T-REx 293 cell line = assay: IP1 assay in mock T-REx 293 cells without transfection of bradykinin receptors; type: cell-based, human; settings: various doses of BK
Description: as §1

Compound	MTT, percentage of control, H4 (H4 cells; 25 µM)	MTT, percentage of control, H4 (H4 cells; 100 µM)	MTT, percentage of control, U87-MG (U87-MG cells; 25 µM)	MTT, percentage of control, U87-MG (U87-MG cells; 100 µM)	MTT, percentage of control, SHP-77 (SHP-77 cells; 25 µM)	MTT, percentage of control, SHP-77 (SHP-77 cells; 100 µM)	other results
N=C(N)NCCC[C@H](NC(=O)[C@H](Cc1cccs1)NC(=O)[C@H]1CCCCN1C(=O)[C@H](CO)NC(=O)[C@H](Cc1cccs1)NC(=O)CNC(=O)[C@@H]1C[C@@H](O)CN1C(=O)[C@@H]1CCCN1C(=O)[C@H](CCCNC(=N)N)NC(=O)[C@@H](CCCNC(=N)N)NC(=O)CC12CC3CC(CC(C3)C1)C2)C(=O)O [BK11]	94.235 ± 3.538 % of control	65.668 ± 3.305 % of control	96.125 ± 1.241 % of control	81.07 ± 4.542 % of control	96.421 ± 3.474 % of control	85.391 ± 5.646 % of control	B1R screening, effect in the presence of BK (antagonist mode) (B1R; T-REx 293/B1R cells, 25 μM analog with BK at EC80): antagonistic effect; caspase-3 activation and PARP cleavage (Western blot) ([1]; 50 μM, compared with untreated control cells): no induction of caspase-3 and PARP
N.N.[Cl][Pt][Cl] [Cisplatin]	25.389 ± 3.71 % of control	5.809 ± 1.488 % of control	50.357 ± 4.97 % of control	32.63 ± 6.934 % of control	53.631 ± 12.052 % of control	37.989 ± 11.626 % of control	caspase-3 activation and PARP cleavage (Western blot) ([1]; 25 μM, positive control of apoptosis): induction of caspase-3 and processed PARP fragments
CC[C@H](C)[C@H](NC(=O)[C@@H](Cc1ccc2ccccc2c1)NC(=O)[C@H](CO)NC(=O)[C@](C)(Cc1ccccc1)NC(=O)CNC(=O)[C@@H]1CCCN1C(=O)[C@@H]1CCCN1C(=O)[C@H](CCCNC(=N)N)NC(=O)[C@H](CCCCN)NC(C)=O)C(=O)O [R 892] (Ac-KRPPG[αMeF]S[d2Nal]I-OH; N-terminus and C-terminus assumed)	–	–	–	–	–	–	EC50 (B1R; T-REx 293/B1R cells, in the presence of EC80 BK (1250 nM), SD ± 66 nM, read-out: EC50 value for decrease of IP1 levels (B1R antagonist)): 69 nM; shift of BK EC50 after treatment with the B1R antagonist (B1R in U87-MG cell line): over 3 times; shift of BK EC50 after treatment with the B1R antagonist (B1R in SHP-77 cell line): 2,5 x; shift of BK EC50 after treatment with the B1R antagonist (B1R in H4 cell line): < 2 x
RPPGFSPFR [BK, Bradykinin]	–	–	–	–	–	–	EC50 (B1R): 1300 nM
RPPGFSPFR-OH [BK, Bradykinin]	–	–	–	–	–	–	response in IP1 assay, mock cells (mock T-REx 293 cell line): did not respond
